Test results reported in patent US20020137929A1, “1 - (3-heterocyclylphenyl) isothiourea, -isourea, -guanidine and -amidine herbicidal agents” (Intellectual Property Department, BASF Aktiengesellschaft, priority 1998, published 2002).

Legend:
[1] = tested on: CYPSE (Flatsedge); assay: Preemergence weed control under flooded paddy conditions; format: in vivo, Cyperus serotinus; settings: rated 3-4 weeks after treatment
How it was run: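 Herbicidal effect is scored visually on a 0-9 scale against an untreated control, three to four weeks after compounds are pipetted into the flood water (1.5 to 3 cm deep) over seeds planted in silt loam at 0.5 cm depth. Rates: about 0.0313 to 0.500 kg/ha.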

[2] = tested on: AMBEL (Ragweed, Common); assay: Preemergence herbicidal evaluation; format: in vivo, Ambrosia artemisifolia; settings: rated 4-5 weeks after treatment
How it was run: (§1)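 Preemergence soil application of compound, sprayed in aqueous acetone at rates equivalent to about 0.0156 to 0.500 kg per hectare onto freshly sown cups. Plant response was judged by eye on a 0-9 scale four to five weeks later.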

[3] = tested on: ECHORC (Watergrass (Calif.)); assay: Postemergence weed control under flooded paddy conditions; format: in vivo, Echinochloa oryzoides; settings: postemergence weeds
How it was run: (§2)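 Weeds 3 to 5 cm tall and rice seedlings at the 1.5 to 2.5 leaf stage were flooded, with water held 1.5 to 3 cm above the soil. Compounds in 50/50 v/v aqueous/acetone went into the flood water at about 0.0313 to 0.500 kg/ha. Visual 0-9 ratings versus control were made 3 to 4 weeks later.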

[4] = tested on: CYPIR (Rice Flatsedge); assay: as above; format: in vivo, Cyperus iria; settings: postemergence weeds
How it was run: as §2

[5] = tested on: ECHCG (Barnyardgrass); assay: Preemergence herbicidal evaluation; format: in vivo, Echinochloa crus-galli; settings: rated 4-5 weeks after treatment
How it was run: as §1

[6] = tested on: ECHORC (Watergrass (Calif.)); assay: Preemergence weed control under flooded paddy conditions; format: in vivo, Echinochloa oryzoides; settings: rated 3-4 weeks after treatment
How it was run: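 Flooded-pot preemergence screen with silt loam and seeds in the upper 0.5 cm. Dose about 0.0313 to 0.500 kg/ha, delivered into flood water; visual 0-9 score after 3 to 4 weeks.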

[7] = tested on: ABUTH (Velvetleaf); assay: Preemergence herbicidal evaluation; format: in vivo, Abutilon theophrasti; settings: rated 4-5 weeks after treatment
How it was run: as §1

[8] = tested on: ZEAMX (Corn, Field); assay: Postemergence herbicidal evaluation; format: in vivo, Zea mays
How it was run: (§3)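 Herbicidal effect was judged by eye on a 0–9 scale covering stand, vigor, deformity, size and chlorosis, compared with controls, four to five weeks after seedlings about two weeks old were sprayed (40 psi, ~0.0156–0.500 kg/ha).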

[9] = tested on: CASOB (Sicklepod); assay: Preemergence herbicidal evaluation; format: in vivo, Cassia obtusifolia; settings: rated 4-5 weeks after treatment
How it was run: as §1

[10] = tested on: IPOHE (Morningglory, Ivyleaf); assay: Preemergence herbicidal evaluation; format: in vivo, Ipomoea hederacea; settings: rated 4-5 weeks after treatment
How it was run: as §1

[11] = tested on: IPOHE (Morningglory, Ivyleaf); assay: Postemergence herbicidal evaluation; format: in vivo, Ipomoea hederacea
How it was run: as §3

[12] = tested on: GLXMAW (Soybean, Williams); assay: Postemergence herbicidal evaluation; format: in vivo, Glycine max, (L.) Merr. cv Williams
How it was run: as §3

[13] = tested on: SETVI (Foxtail, Green); assay: Postemergence herbicidal evaluation; format: in vivo, Setaria viridis
How it was run: as §3

[14] = tested on: ABUTH (Velvetleaf); assay: Postemergence herbicidal evaluation; format: in vivo, Abutilon theophrasti
How it was run: as §3

[15] = Rate 0.0313 kg/ha, rated 3 to 4 weeks after treatment
[16] = Rate 0.0625 kg/ha, rated 3 to 4 weeks after treatment
[17] = Rate 0.1250 kg/ha, rated 3 to 4 weeks after treatment
[18] = Rate 0.2500 kg/ha, rated 3 to 4 weeks after treatment
[19] = rate 0.1250 kg/ha, 3-4 weeks after treatment
[20] = rate 0.2500 kg/ha, 3-4 weeks after treatment

SMILES: CCOC(=O)CN1C(=O)C(CC(=O)OC(C)C)SC1=Nc1cc(-n2c(=O)cc(C(F)(F)F)n(C)c2=O)c(F)cc1Cl (stereo not shown) [Compound 60, 2-{{2-Chloro-5-[3,6-dihydro-3-methyl-2,6-dioxo-4-(trifluoromethyl)-1(2H)-pyrimidinyl]-4-fluoro-phenyl}imino}-4-oxo-3,5-thiazolidinediacetic acid, 3-ethyl isopropyl ester]
- CYPSE herbicidal effect rating ([1]; 0.0313 kg/ha): 2.0
- CYPSE herbicidal effect rating ([1]; 0.0625 kg/ha): 2.0
- CYPSE herbicidal effect rating ([1]; 0.1250 kg/ha): 4.0
- CYPSE herbicidal effect rating ([1]; 0.2500 kg/ha): 4.0
- Preemergence herbicidal rating AMBEL ([2]; rate 0.0156 kg/ha): 0.0
- Preemergence herbicidal rating AMBEL ([2]; rate 0.0313 kg/ha): 0.0
- Preemergence herbicidal rating AMBEL ([2]; rate 0.0625 kg/ha): 2.0
- Preemergence herbicidal rating AMBEL ([2]; rate 0.1250 kg/ha): 7.0
- Preemergence herbicidal rating AMBEL ([2]; rate 0.2500 kg/ha): 7.0
- Preemergence herbicidal rating AMBEL ([2]; rate 0.5000 kg/ha): 9.0
- Herbicidal rating ECHORC [3, 15]: 7.0
- Herbicidal rating ECHORC [3, 16]: 9.0
- Herbicidal rating ECHORC [3, 17]: 9.0
- Herbicidal rating ECHORC [3, 18]: 9.0
- Herbicidal rating CYPIR [4, 15]: 3.0
- Herbicidal rating CYPIR [4, 16]: 3.0
- Herbicidal rating CYPIR [4, 17]: 6.0
- Herbicidal rating CYPIR [4, 18]: 6.0
- Preemergence herbicidal rating ECHCG ([5]; rate 0.0156 kg/ha): 0.0
- Preemergence herbicidal rating ECHCG ([5]; rate 0.0313 kg/ha): 0.0
- Preemergence herbicidal rating ECHCG ([5]; rate 0.0625 kg/ha): 0.0
- Preemergence herbicidal rating ECHCG ([5]; rate 0.1250 kg/ha): 0.0
- Preemergence herbicidal rating ECHCG ([5]; rate 0.2500 kg/ha): 0.5
- Preemergence herbicidal rating ECHCG ([5]; rate 0.5000 kg/ha): 2.0
- ECHORC herbicidal effect rating ([6]; 0.0313 kg/ha): 7.0
- ECHORC herbicidal effect rating ([6]; 0.0625 kg/ha): 9.0
- ECHORC herbicidal effect rating ([6]; 0.1250 kg/ha): 9.0
- ECHORC herbicidal effect rating ([6]; 0.2500 kg/ha): 9.0
- Preemergence herbicidal rating ABUTH ([7]; rate 0.0156 kg/ha): 2.0
- Preemergence herbicidal rating ABUTH ([7]; rate 0.0313 kg/ha): 9.0
- Preemergence herbicidal rating ABUTH ([7]; rate 0.0625 kg/ha): 7.0
- Preemergence herbicidal rating ABUTH ([7]; rate 0.1250 kg/ha): 9.0
- Preemergence herbicidal rating ABUTH ([7]; rate 0.2500 kg/ha): 9.0
- Preemergence herbicidal rating ABUTH ([7]; rate 0.5000 kg/ha): 9.0
- Postemergence herbicidal rating ZEAMX ([8]; Rate 0.0158 kg/ha): 5.0
- Postemergence herbicidal rating ZEAMX ([8]; Rate 0.0315 kg/ha): 5.0
- Postemergence herbicidal rating ZEAMX ([8]; Rate 0.0630 kg/ha): 5.5
- Preemergence herbicidal rating CASOB ([9]; rate 0.0156 kg/ha): 0.0
- Preemergence herbicidal rating CASOB ([9]; rate 0.0313 kg/ha): 0.0
- Preemergence herbicidal rating CASOB ([9]; rate 0.0625 kg/ha): 0.0
- Preemergence herbicidal rating CASOB ([9]; rate 0.1250 kg/ha): 1.0
- Preemergence herbicidal rating CASOB ([9]; rate 0.2500 kg/ha): 5.5
- Preemergence herbicidal rating CASOB ([9]; rate 0.5000 kg/ha): 4.0
- Preemergence herbicidal rating IPOHE ([10]; rate 0.0156 kg/ha): 0.0
- Preemergence herbicidal rating IPOHE ([10]; rate 0.0313 kg/ha): 0.0
- Preemergence herbicidal rating IPOHE ([10]; rate 0.0625 kg/ha): 0.0
- Preemergence herbicidal rating IPOHE ([10]; rate 0.1250 kg/ha): 2.0
- Preemergence herbicidal rating IPOHE ([10]; rate 0.2500 kg/ha): 5.0
- Preemergence herbicidal rating IPOHE ([10]; rate 0.5000 kg/ha): 9.0
- Postemergence herbicidal rating IPOHE ([11]; Rate 0.0158 kg/ha): 9.0
- Postemergence herbicidal rating IPOHE ([11]; Rate 0.0315 kg/ha): 9.0
- Postemergence herbicidal rating IPOHE ([11]; Rate 0.0630 kg/ha): 9.0
- Postemergence herbicidal rating GLXMAW ([12]; Rate 0.0158 kg/ha): 6.5
- Postemergence herbicidal rating GLXMAW ([12]; Rate 0.0315 kg/ha): 6.5
- Postemergence herbicidal rating GLXMAW ([12]; Rate 0.0630 kg/ha): 7.0
- Postemergence herbicidal rating SETVI ([13]; Rate 0.0158 kg/ha): 0.0
- Postemergence herbicidal rating SETVI ([13]; Rate 0.0315 kg/ha): 4.0
- Postemergence herbicidal rating SETVI ([13]; Rate 0.0630 kg/ha): 5.0
- Postemergence herbicidal rating ABUTH ([14]; Rate 0.0158 kg/ha): 9.0
- Postemergence herbicidal rating ABUTH ([14]; Rate 0.0315 kg/ha): 9.0
- Postemergence herbicidal rating ABUTH ([14]; Rate 0.0630 kg/ha): 9.0

SMILES: C#CCOC(=O)CC1SC(=Nc2cc(-n3c(=O)cc(C(F)(F)F)n(C)c3=O)c(F)cc2Cl)N(CC(=O)OCC)C1=O (stereo not shown) [Compound 59, 2-{{2-Chloro-5-[3,6-dihydro-3-methyl-2,6-dioxo-4-(trifluoromethyl)-1(2H)-pyrimidinyl]-4-fluorophenyl}imino}-4-oxo-3,5-thiazolidinediacetic acid, 3-ethyl (2-propynyl) ester]
- CYPSE herbicidal effect rating ([1]; 0.0625 kg/ha): 0.0
- CYPSE herbicidal effect rating ([1]; 0.1250 kg/ha): 0.0
- CYPSE herbicidal effect rating ([1]; 0.2500 kg/ha): 7.0
- Preemergence herbicidal rating AMBEL ([2]; rate 0.0156 kg/ha): 2.0
- Preemergence herbicidal rating AMBEL ([2]; rate 0.0313 kg/ha): 3.5
- Preemergence herbicidal rating AMBEL ([2]; rate 0.0625 kg/ha): 6.5
- Preemergence herbicidal rating AMBEL ([2]; rate 0.1250 kg/ha): 9.0
- Preemergence herbicidal rating AMBEL ([2]; rate 0.2500 kg/ha): 9.0
- Preemergence herbicidal rating AMBEL ([2]; rate 0.5000 kg/ha): 9.0
- Herbicidal rating ECHORC [3, 16]: 4.0
- Herbicidal rating ECHORC [3, 19]: 5.0
- Herbicidal rating ECHORC [3, 20]: 7.0
- Herbicidal rating CYPIR [4, 16]: 0.0
- Herbicidal rating CYPIR [4, 19]: 0.0
- Herbicidal rating CYPIR [4, 20]: 9.0
- Preemergence herbicidal rating ECHCG ([5]; rate 0.0156 kg/ha): 0.0
- Preemergence herbicidal rating ECHCG ([5]; rate 0.0313 kg/ha): 0.0
- Preemergence herbicidal rating ECHCG ([5]; rate 0.0625 kg/ha): 0.5
- Preemergence herbicidal rating ECHCG ([5]; rate 0.1250 kg/ha): 2.0
- Preemergence herbicidal rating ECHCG ([5]; rate 0.2500 kg/ha): 6.0
- Preemergence herbicidal rating ECHCG ([5]; rate 0.5000 kg/ha): 9.0
- ECHORC herbicidal effect rating ([6]; 0.0625 kg/ha): 4.0
- ECHORC herbicidal effect rating ([6]; 0.1250 kg/ha): 5.0
- ECHORC herbicidal effect rating ([6]; 0.2500 kg/ha): 7.0
- Preemergence herbicidal rating ABUTH ([7]; rate 0.0156 kg/ha): 2.0
- Preemergence herbicidal rating ABUTH ([7]; rate 0.0313 kg/ha): 6.0
- Preemergence herbicidal rating ABUTH ([7]; rate 0.0625 kg/ha): 8.5
- Preemergence herbicidal rating ABUTH ([7]; rate 0.1250 kg/ha): 9.0
- Preemergence herbicidal rating ABUTH ([7]; rate 0.2500 kg/ha): 9.0
- Preemergence herbicidal rating ABUTH ([7]; rate 0.5000 kg/ha): 9.0
- Postemergence herbicidal rating ZEAMX ([8]; Rate 0.0158 kg/ha): 7.5
- Postemergence herbicidal rating ZEAMX ([8]; Rate 0.0315 kg/ha): 8.0
- Postemergence herbicidal rating ZEAMX ([8]; Rate 0.0630 kg/ha): 8.5
- Preemergence herbicidal rating CASOB ([9]; rate 0.0156 kg/ha): 0.0
- Preemergence herbicidal rating CASOB ([9]; rate 0.0313 kg/ha): 0.0
- Preemergence herbicidal rating CASOB ([9]; rate 0.0625 kg/ha): 2.0
- Preemergence herbicidal rating CASOB ([9]; rate 0.1250 kg/ha): 7.0
- Preemergence herbicidal rating CASOB ([9]; rate 0.2500 kg/ha): 7.5
- Preemergence herbicidal rating CASOB ([9]; rate 0.5000 kg/ha): 9.0
- Preemergence herbicidal rating IPOHE ([10]; rate 0.0156 kg/ha): 1.0
- Preemergence herbicidal rating IPOHE ([10]; rate 0.0313 kg/ha): 4.0
- Preemergence herbicidal rating IPOHE ([10]; rate 0.0625 kg/ha): 8.5
- Preemergence herbicidal rating IPOHE ([10]; rate 0.1250 kg/ha): 9.0
- Preemergence herbicidal rating IPOHE ([10]; rate 0.2500 kg/ha): 9.0
- Preemergence herbicidal rating IPOHE ([10]; rate 0.5000 kg/ha): 9.0
- Postemergence herbicidal rating IPOHE ([11]; Rate 0.0158 kg/ha): 9.0
- Postemergence herbicidal rating IPOHE ([11]; Rate 0.0315 kg/ha): 9.0
- Postemergence herbicidal rating IPOHE ([11]; Rate 0.0630 kg/ha): 9.0
- Postemergence herbicidal rating GLXMAW ([12]; Rate 0.0158 kg/ha): 8.0
- Postemergence herbicidal rating GLXMAW ([12]; Rate 0.0315 kg/ha): 9.0
- Postemergence herbicidal rating GLXMAW ([12]; Rate 0.0630 kg/ha): 9.0
- Postemergence herbicidal rating SETVI ([13]; Rate 0.0158 kg/ha): 9.0
- Postemergence herbicidal rating SETVI ([13]; Rate 0.0315 kg/ha): 9.0
- Postemergence herbicidal rating SETVI ([13]; Rate 0.0630 kg/ha): 9.0
- Postemergence herbicidal rating ABUTH ([14]; Rate 0.0158 kg/ha): 9.0
- Postemergence herbicidal rating ABUTH ([14]; Rate 0.0315 kg/ha): 9.0
- Postemergence herbicidal rating ABUTH ([14]; Rate 0.0630 kg/ha): 9.0
